Molecular target: T1, FYN A (Homo sapiens, UniProt P06241)
T1 construct: purchased Thermo Fisher Scientific (Life Technologies) SelectScreen
Assay: SelectScreen LanthaScreen
Format: binding
Conditions: read-out: % displacement
Outline: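 SelectScreen broad panel; activity (Z'LYTE, Adapta) plus binding formats. ATP: Km app for CSF1R Z'LYTE; 10 for CAMK1 Adapta. Readout = % per kinase.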

T1 sequence (P06241 whole entry): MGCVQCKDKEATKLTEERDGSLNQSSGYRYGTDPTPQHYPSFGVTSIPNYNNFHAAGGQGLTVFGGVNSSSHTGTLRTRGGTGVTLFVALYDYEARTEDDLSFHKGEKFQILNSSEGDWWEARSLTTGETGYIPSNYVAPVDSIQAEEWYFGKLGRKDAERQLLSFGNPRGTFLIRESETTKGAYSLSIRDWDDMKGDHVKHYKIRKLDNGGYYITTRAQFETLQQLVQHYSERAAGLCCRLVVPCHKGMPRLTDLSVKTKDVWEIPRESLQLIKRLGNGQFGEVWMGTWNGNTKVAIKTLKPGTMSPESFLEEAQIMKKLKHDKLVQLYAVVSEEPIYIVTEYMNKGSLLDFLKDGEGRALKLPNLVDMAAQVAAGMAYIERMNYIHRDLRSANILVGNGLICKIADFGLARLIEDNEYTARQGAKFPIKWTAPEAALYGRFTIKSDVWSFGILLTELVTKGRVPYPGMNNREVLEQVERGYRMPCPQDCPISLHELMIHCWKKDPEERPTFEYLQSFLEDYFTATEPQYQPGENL

CN(C(=O)CN1CCOCC1)c1ccc2sc3c(-c4cccc5c(=O)cc(N6CC7CCC(C6)O7)oc45)cccc3c2c1 [NU5455]
inhibition at 1 µM: 3.3%

From PMC6934184, “Selective DNA-PKcs inhibition extends the therapeutic index of localized radiotherapy and chemotherapy” (The Journal of Clinical Investigation, 2019)
